Patent US10633354B2, “Substituted tricyclic heterocyclic compounds” (BRISTOL-MYERS SQUIBB COMPANY, priority 2016, dated 2020)

How the values were obtained:
[1] = Parent and phosphate concentrations in the BLR assay; details: rat, in vivo, po, Lewis rats dosed orally
Experimental: (§1) Blood Lymphocyte Reduction (BLR) Assay in Rodent:
Lewis rats were dosed orally with vehicle alone (polyethylene glycol 300, “PEG300”) or with test compounds. Compounds were dosed as a solution or suspension in the vehicle, adjusted to reflect the free amount of test article in the event that salt forms are utilized. Blood was drawn at 24 hr and blood lymphocyte counts were determined on an ADVIA 120 Hematology Analyzer (Siemens Healthcare Diagnostics). The results were measured as a reduction in the percentage of circulating lymphocytes as compared to the vehicle treated group at the time of measurement. The results represent the average results of all animals within each treatment group (n=2).

[2] = as above; details: rat, in vivo, po, Lewis rats dosed orally; remark: listed apart in the source
circulating lymphocytes = assay: Blood Lymphocyte Reduction (BLR) assay in rodent; format: in vivo; details: Lewis rats dosed orally; for BL (×10^3/mm^3): n=2; for Lymp. Red.: vs vehicle group
Experimental: as §1
Lewis rats were dosed orally with vehicle alone (polyethylene glycol 300, “PEG300”) or with test compounds. Compounds were dosed as a solution or suspension in the vehicle, adjusted to reflect the free amount of test article in the event that salt forms are utilized. […] The results were measured as a reduction in the percentage of circulating lymphocytes as compared to the vehicle treated group at the time of measurement. The results represent the average results of all animals within each treatment group (n=2).

concentration at 24 h [1] | concentration at 4 h [2] | Structure (SMILES) | BL (×10^3/mm^3) (circulating lymphocytes; 4 Hours) | Lymp. Red. (circulating lymphocytes; 4 Hours) | BL (×10^3/mm^3) (circulating lymphocytes; 24 Hours) | Lymp. Red. (circulating lymphocytes; 24 Hours)
0.111 µM | 0.066 µM | CCCCCCCc1nc2c(s1)-c1ccc([C@H]3CC[C@](N)(CO)C3)cc1CC2 [Example 1, ((1R,3S)-1-amino-3-(2-heptyl-4,5-dihydronaphtho[2,1-d]thiazol-7-yl)cyclopentyl) methanol] | 5.7 ×10^3/mm^3 | 40% | 1.8 ×10^3/mm^3 | 77%
< 0.019 µM | 0.108 µM | CCCc1nc2c(s1)-c1ccc([C@H]3CC[C@](N)(CO)C3)cc1CC2 [Example 2, ((1R,3S)-1-amino-3-(2-propyl-4,5-dihydronaphtho[2,1-d]thiazol-7-yl)cyclopentyl) methanol] | 4.9 ×10^3/mm^3 | 41% | 8.2 ×10^3/mm^3 | 0%
0.009 µM | 0.077 µM | CCCCCCc1nc2c(s1)-c1ccc([C@H]3CC[C@](N)(CO)C3)cc1CC2 [Example 5, ((1R,3S)-1-amino-3-(2-hexyl-4,5-dihydronaphtho[2,1-d]thiazol-7-yl)cyclopentyl)methanol] | 2.8 ×10^3/mm^3 | 66% | 4.5 ×10^3/mm^3 | 48%
0.066 µM | 0.109 µM | CCCCc1nc2c(s1)-c1ccc([C@H]3CC[C@](N)(CO)C3)cc1CC2 [Example 6, ((1R,3S)-1-amino-3-(2-butyl-4,5-dihydronaphtho[2,1-d]thiazol-7-yl)cyclopentyl)methanol] | 3.4 ×10^3/mm^3 | 59% | 1.5 ×10^3/mm^3 | 82%
0.031 µM | 0.072 µM | CCCCCCOc1nc2c(s1)-c1ccc([C@H]3CC[C@](N)(CO)C3)cc1CC2 [Example 9, ((1R,3S)-1-amino-3-(2-(hexyloxy)-4,5-dihydronaphtho[2,1-d]thiazol-7-yl)cyclopentyl) methanol] | 2.8 ×10^3/mm^3 | 66% | 1.4 ×10^3/mm^3 | 82%
0.001 µM | 0.009 µM | CCCCSc1nc2c(s1)-c1ccc([C@H]3CC[C@](N)(CO)C3)cc1CC2 [Example 10, ((1R,3S)-1-amino-3-(2-(butylthio)-4,5-dihydronaphtho[2,1-d]thiazol-7-yl)cyclopentyl)methanol] | 1.7 ×10^3/mm^3 | 82% | 4.1 ×10^3/mm^3 | 48%
0.016 µM | 0.087 µM | CCCCCSc1nc2c(s1)-c1ccc([C@H]3CC[C@](N)(CO)C3)cc1CC2 [Example 11, ((1R,3S)-1-amino-3-(2-(pentylthio)-4,5-dihydronaphtho[2,1-d]thiazol-7-yl)cyclopentyl) methanol] | 2.3 ×10^3/mm^3 | 72% | 2.1 ×10^3/mm^3 | 76%
0.029 µM | 0.081 µM | CCCCCOc1nc2c(s1)-c1ccc([C@H]3CC[C@](N)(CO)C3)cc1CC2 [Example 12, ((1R,3S)-1-amino-3-(2-(pentyloxy)-4,5-dihydronaphtho[2,1-d]thiazol-7-yl)cyclopentyl)methanol] | 2.8 ×10^3/mm^3 | 67% | 1.8 ×10^3/mm^3 | 80%
0.008 µM | 0.015 µM | CCCCSc1nc2ccc3cc([C@H]4CC[C@](N)(CO)C4)ccc3c2s1 [Example 14, ((1R,3S)-1-amino-3-(2-(butylthio)naphtho[2,1-d]thiazol-7-yl)cyclopentyl)methanol] | 2.6 ×10^3/mm^3 | 69% | 2.1 ×10^3/mm^3 | 75%
0.017 µM | 0.031 µM | CCCCCOc1nc2ccc3cc([C@H]4CC[C@](N)(CO)C4)ccc3c2s1 [Example 15, ((1R,3S)-1-amino-3-(2-(pentyloxy)naphtho[2,1-d]thiazol-7-yl)cyclopentyl)methanol] | 1.7 ×10^3/mm^3 | 80% | 1.8 ×10^3/mm^3 | 80%
0 µM | 0.033 µM | CCCCNc1nc2c(s1)-c1ccc([C@H]3CC[C@](N)(CO)C3)cc1CC2 [Example 17, ((1R,3S)-1-amino-3-(2-(butylamino)-4,5-dihydronaphtho[2,1-d]thiazol-7-yl)cyclopentyl)methanol] | 5.8 ×10^3/mm^3 | 37% | 8.4 ×10^3/mm^3 | 0%
0.018 µM | 0.113 µM | CCCCN(C)c1nc2c(s1)-c1ccc([C@H]3CC[C@](N)(CO)C3)cc1CC2 [Example 18, ((1R,3S)-1-amino-3-(2-(butyl(methyl)amino)-4,5-dihydronaphtho[2,1-d]thiazol-7-yl)cyclopentyl)methanol] | 5.9 ×10^3/mm^3 | 30% | 6.4 ×10^3/mm^3 | 27%
0.037 µM | 0.048 µM | Cc1ccc(-c2nc3c(s2)-c2ccc([C@H]4CC[C@](N)(CO)C4)cc2CC3)cc1 [Example 19, ((1R,3S)-1-amino-3-(2-(p-tolyl)-4,5-dihydronaphtho[2,1-d]thiazol-7-yl)cyclopentyl)methanol] | 7.5 ×10^3/mm^3 | 9% | 8.2 ×10^3/mm^3 | 2%
0.068 µM | 0.097 µM | COc1cccc(-c2nc3c(s2)-c2ccc([C@H]4CC[C@](N)(CO)C4)cc2CC3)c1 [Example 20, ((1R,3S)-1-amino-3-(2-(3-methoxyphenyl)-4,5-dihydronaphtho[2,1-d]thiazol-7-yl)cyclopentyl)methanol] | 5.7 ×10^3/mm^3 | 31% | 3.1 ×10^3/mm^3 | 63%

Structure (SMILES) | concentration at 24 h [1] | concentration at 4 h [2] | BL (×10^3/mm^3) (circulating lymphocytes; 4 Hours) | Lymp. Red. (circulating lymphocytes; 4 Hours) | BL (×10^3/mm^3) (circulating lymphocytes; 24 Hours) | Lymp. Red. (circulating lymphocytes; 24 Hours)
CCCCOCCOc1nc2c(s1)-c1ccc([C@H]3CC[C@](N)(CO)C3)cc1CC2 [Example 7, ((1R,3S)-1-amino-3-(2-(2-butoxyethoxy)-4,5-dihydronaphtho[2,1-d]thiazol-7-yl)cyclopentyl)methanol] | 0.142 µM | 0.001 µM | 1.9 ×10^3/mm^3 | 79% | 1.2 ×10^3/mm^3 | 87%
CCCCOc1nc2c(s1)-c1ccc([C@H]3CC[C@](N)(CO)C3)cc1CC2 [Example 8, ((1R,3S)-1-amino-3-(2-butoxy-4,5-dihydronaphtho[2,1-d]thiazol-7-yl)cyclopentyl)methanol] | 0.007 µM | 0.035 µM | 2.5 ×10^3/mm^3 | 74% | 2.4 ×10^3/mm^3 | 68%
CCCCCCOc1nc2ccc3cc([C@H]4CC[C@](N)(CO)C4)ccc3c2s1 [Example 13, ((1R,3S)-1-amino-3-(2-(hexyloxy)naphtho[2,1-d]thiazol-7-yl)cyclopentyl)methanol] | 0.078 µM | 0.065 µM | 2.5 ×10^3/mm^3 | 73% | 1.4 ×10^3/mm^3 | 83%
CCCCOc1nc2ccc3cc([C@H]4CC[C@](N)(CO)C4)ccc3c2s1 [Example 16, ((1R,3S)-1-amino-3-(2-butoxynaphtho[2,1-d]thiazol-7-yl)cyclopentyl)methanol] | 0.021 µM | 0.028 µM | 2.9 ×10^3/mm^3 | 65% | 1.9 ×10^3/mm^3 | 77%
